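Five compound concentrations were applied to cells in 96-well plates for 48 hours; endpoints were derived by simple linear interpolation of the resulting dose-response curve. TGI is the concentration that stops growth completely.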
Experiments:
Assay in all cases: NCI-60 cell line screen, 48 h
786-0 renal = test system: 786-0 renal
A498 renal = test system: A498 renal
A549 NSCLC = test system: A549 NSCLC
ACHN renal = test system: ACHN renal
BT-549 breast = test system: BT-549 breast
CAKI-1 renal = test system: CAKI-1 renal
CCRF-CEM leukemia = test system: CCRF-CEM leukemia
COLO 205 colon = test system: COLO 205 colon
DU-145 prostate = test system: DU-145 prostate
EKVX NSCLC = test system: EKVX NSCLC
HCC-2998 colon = test system: HCC-2998 colon
HCT-116 colon = test system: HCT-116 colon
HCT-15 colon = test system: HCT-15 colon
HL-60(TB) leukemia = test system: HL-60(TB) leukemia
HOP-62 NSCLC = test system: HOP-62 NSCLC
HOP-92 NSCLC = test system: HOP-92 NSCLC
HS 578T breast = test system: HS 578T breast
HT29 colon = test system: HT29 colon
IGROV1 ovarian = test system: IGROV1 ovarian
K-562 leukemia = test system: K-562 leukemia
KM12 colon = test system: KM12 colon
LOX IMVI melanoma = test system: LOX IMVI melanoma
M14 melanoma = test system: M14 melanoma
MALME-3M melanoma = test system: MALME-3M melanoma
MCF7 breast = test system: MCF7 breast
MDA-MB-231 breast = test system: MDA-MB-231 breast
MDA-MB-435 = test system: MDA-MB-435
MDA-N = test system: MDA-N
MOLT-4 leukemia = test system: MOLT-4 leukemia
NCI-H226 lung = test system: NCI-H226 lung
NCI-H23 lung = test system: NCI-H23 lung
NCI-H460 lung = test system: NCI-H460 lung
NCI-H522 lung = test system: NCI-H522 lung
NCI/ADR-RES ovarian = test system: NCI/ADR-RES ovarian
OVCAR-3 ovarian = test system: OVCAR-3 ovarian
OVCAR-4 ovarian = test system: OVCAR-4 ovarian
OVCAR-5 ovarian = test system: OVCAR-5 ovarian
OVCAR-8 ovarian = test system: OVCAR-8 ovarian
PC-3 prostate = test system: PC-3 prostate
RPMI-8226 leukemia = test system: RPMI-8226 leukemia
RXF 393 renal = test system: RXF 393 renal
SF-268 CNS = test system: SF-268 CNS
SF-295 CNS = test system: SF-295 CNS
SF-539 CNS = test system: SF-539 CNS
SK-MEL-2 melanoma = test system: SK-MEL-2 melanoma
SK-MEL-28 melanoma = test system: SK-MEL-28 melanoma
SK-MEL-5 melanoma = test system: SK-MEL-5 melanoma
SK-OV-3 ovarian = test system: SK-OV-3 ovarian
SN12C renal = test system: SN12C renal
SNB-19 CNS = test system: SNB-19 CNS
SNB-75 CNS = test system: SNB-75 CNS
SR leukemia = test system: SR leukemia
SW-620 colon = test system: SW-620 colon
T-47D breast = test system: T-47D breast
TK-10 renal = test system: TK-10 renal
U251 CNS = test system: U251 CNS
UACC-257 melanoma = test system: UACC-257 melanoma
UACC-62 melanoma = test system: UACC-62 melanoma
UO-31 renal = test system: UO-31 renal

Measured: TGI

O=C(O)CCc1nc2ccccc2[nH]1
> 100 µM: all assays above
